# Experimental data reported in US9061984B2 (University of Louisville Research Foundation, Inc., priority 2008, dated 2015).
# Read-outs that look alike come from different tables or passages of the source.
# Tests used:
# [1] = tested on: Trypanosoma cruzi (Tulahuen C4); assay: In vitro anti-T. cruzi activity (β-galactosidase CPRG colorimetric assay in VERO monolayer); type: cell-based; conditions: for inhibition at 10 µg/mL / IC50: Trypanosoma cruzi, TULAHUEN, Vero; for inhibition at 10 µg/mL: 120 h, 10 μg/mL of each compound, 120 hours, read-out: T. cruzi Inhib. (%)
# peritoneal macrophages = assay: Toxicity to peritoneal macrophages (Trypan Blue count); type: cell-based, BALB/C mouse
# Protocol: (§1) Peritoneal macrophages were prepared as follows. Non-inflammatory macrophages (10^6) were collected from each BALB/C mouse. The cells adhered at 37° C. after 2 h under 5% CO2 in a CO2 incubator. The plates were then rinsed two to three times with 0.5 mL of RPMI+buffer MOPS without fetal calf serum to eliminate non-adhering cells. The supernatant on the plates was replaced by fresh medium (RPMI+glutamine+FCS+antibiotics), 0.5 mL of medium per well. To determine the toxicity of the compounds to macrophages, dilutions of compounds were added on a part of the macrophages prepared above. […] The medium was then removed and 1 μL of sterile Trypan Blue was added. Cover glasses N° 1 were left where cells were plated and then the number of macrophages in a microscope was determined with a haemocytometer. All experiments were performed in triplicate.
# [2] = tested on: axenic amastigotes of L. amazonensis (strain MHOM/BR/76/LTB-012); assay: microbe, parasite or virus in culture; conditions: Leishmania amazonensis
# [3] = Cytotoxicity on VERO cells (MTT), anti-T. cruzi study; conditions: African green monkey
# VERO cells [4] = assay: as above; conditions: for IC50: Chlorocebus sabaeus, Vero
# 3T3 cells = assay: Cell growth inhibition bioassay (sulforhodamine B); type: cell-based, mouse; conditions: 48 h, SRB; for GI50: Mus musculus, NIH3T3, read-out: GI50 in indicated cell line: 3T3
# Protocol: (§2) The cytotoxicity of compounds was assayed as follows. […] Appropriate solvent controls were tested for comparison. The percent inhibition of cell growth relative to the control was evaluated colorimetrically using a sulforhodamine B dye by comparison to the control. The calorimetric procedure followed that published in Skehan et al., J. Nat. Cancer Inst., […], pp. 1107-1112 (1990) and Boyd & Paull, Drug Dev. Res., Vol. 34, pp. 91-109 (1995). […] The cell lines are: 3T3 cells are BALB/3T3 clone A31 embryonic mouse fibroblast cells; H460 cells are human large cell lung cancer cells; DU145 cells are human prostate carcinoma cells; MCF-7 cells are human breast adenocarcinoma cells; M-14 cells are human melanoma cells; HT-29 cells are human colon adenocarcinoma cells; PC3 cells are human prostate adenocarcinoma cells; K562 cells are human chronic myelogenous leukemia cells; and VERO cells are African Green Monkey kidney epithelial cells.
# DU145 cells = assay: Cell growth inhibition bioassay (sulforhodamine B); type: cell-based, human; conditions: 48 h, SRB; for GI50: Homo sapiens, DU-145, read-out: GI50 in indicated cell line: DU145
# Protocol: as §2
# H460 cells = assay: Cell growth inhibition bioassay (sulforhodamine B); type: cell-based, human; conditions: 48 h, SRB; for GI50: Homo sapiens, NCI-H460, read-out: GI50 in indicated cell line: H460
# Protocol: as §2
# HT-29 cells = assay: Cell growth inhibition bioassay (sulforhodamine B); type: cell-based, human; conditions: 48 h, SRB; for GI50: Homo sapiens, HT-29, read-out: GI50 in indicated cell line: HT-29
# Protocol: as §2
# K562 cells = assay: Cell growth inhibition bioassay (sulforhodamine B); type: cell-based, human; conditions: 48 h, SRB; for GI50: Homo sapiens, K562, read-out: GI50 in indicated cell line: K562
# Protocol: as §2
# M-14 cells = assay: Cell growth inhibition bioassay (sulforhodamine B); type: cell-based, human; conditions: 48 h, SRB; for GI50: Homo sapiens, M14, read-out: GI50 in indicated cell line: M-14
# Protocol: as §2
# MCF-7 cells = assay: Cell growth inhibition bioassay (sulforhodamine B); type: cell-based, human; conditions: 48 h, SRB; for GI50: Homo sapiens, MCF7, read-out: GI50 in indicated cell line: MCF-7
# Protocol: as §2
# VERO cells [5] = assay: Cell growth inhibition bioassay (sulforhodamine B); type: cell-based, African Green Monkey; conditions: 48 h, SRB; for GI50: Chlorocebus sabaeus, Vero, read-out: GI50 in indicated cell line: VERO
# Protocol: as §2
# M. tuberculosis H37Rv = assay: Conventional aerobic (MABA) culture assay, luminescence MIC; type: cell-based, Mycobacterium tuberculosis; conditions: aerobic, 7 days, H37Rv; for MIC: Mycobacterium tuberculosis, 168 h
# [6] = tested on: axenic amastigotes of L. amazonensis (strain MHOM/BR/76/LTB-012); conditions: Table 8b
# [7] = Toxicity to peritoneal macrophages (Trypan Blue count); type: cell-based, BALB/C mouse; conditions: BALB/C, mouse, Cytotoxicity Macrophages IC50
# Protocol: as §1
# L. amazonensis = conditions: intralesional, compounds 5 mg/kg/day, Glucantime 33 mg Sb(v)/kg/day; for Mean lesion wt (mg) (±SD): BALB/c mice n=10; for % Variation of lesion wt / % reduction of parasite burden in the lesion: vs control
# L. braziliensis PER006 = assay: Activity against macrophages infected with Leishmania amastigotes; conditions: Leishmania braziliensis, Macrophage, read-out: IC50 L. braziliensis PER006
# Protocol: (§3) A cloned line of Leishmania amazonensis(strain MHOM/BR/76/LTB-012) was used in all experiments. Axenically grown amastigote forms of L. amazonensis were maintained by weekly subpassages in MAA/20 medium (Sereno and Lemesre, Antimicrobial Agents and Chemotherapy 41, 972-976 (1997)) at 32±1° C. in 25 cm^2 tissue culture flasks. L. peruviana (strain MHOM/PE/LCA08) and L. braziliensis (strainMHOM/PE/PER006) were maintained in the promastigote stage in a biphasic medium (blood agar with 0.89% NaCl, pH 7.4) at 24° C., with sub-passage every 3 to 4 days. Promastigotes (5×10^6 parasites) were then transferred to 25 cm2 tissue culture flasks containing 5 ml of M199 medium supplemented with 10% foetal bovine serum (FBS), pH 7.4. After 4 days, exponential phase promastigotes were centrifuged for 10 minutes at 1500 g and 4° C. The supernatant was discarded and replaced by fresh M199 medium supplemented with 20% FBS, pH 5.5. Axenic amastigotes transformation was then induced by increasing the temperature to 34° C. and incubating for 96 h (Teixeira et al., Parasitology Research 88, 963-968 (2002)).
# (§4) Extracted cells were immediately deposited on sterile 4×4 mm cover glasses and placed in each well of a 96-well plate. Plates were incubated for 24 h at 37° C., 5% CO2 to allow cell adhesion (Castillo et al, Journal of Ethnopharmacology 112, 410-414 (2007)). Pre-warmed complete M199 medium was used twice to remove non-adherent cells. A neutral red method (Fautz et al., Mutation Research 253, 173-179 (1991)) was employed to determine cell concentration. Approximately 7×10^4 viable cells were deposited in each well for adhesion.
# (§5) Infection of macrophages by amastigotes was determined as follows. […] Twelve hours after infection, a solution of the compounds to be tested was added to the cultures at various concentrations and maintained at 37° C. in 5% CO2 for a further forty-eight hours more. The plates were fixed with methanol and stained with 10% Giemsa stain. The percentage of infected macrophages was determined microscopically at 100 times magnification. The number of intracellular amastigotes was determined in 300 cells. Following Delorenzi et al. Antimicrobial Agents and Chemotherapy, 45, 1349-1354 (2001)) the percentage of infection rate (% IR) of each culture was calculated as follows: % IR=100−(infection rate of the treated culture/infection rate of the untreated culture)×100.
# (§6) All experiments were performed in triplicate. ANOVA was used to test for statistical significance of differences (Epi-Info, Statview student program). The total parasite burden was calculated as a mean number of amastigotes per cells multiplied by the number of infected macrophages.
# L. peruviana LCA08 = assay: as above; conditions: Leishmania peruviana, Macrophage, read-out: IC50 L. peruviana LCA08
# Protocol: as §3, §4, §5, §6
# [8] = Table 2, read-out: IC50 - T. cruzi
# [9] = Table 3, read-out: IC50 T. cruzi
# [10] = 72 h, read-out: IC50 L. amazonensis
# [11] = Mus musculus, Peritoneal macrophage, 48 h, Table 7, read-out: IC50 Macrophage
# [12] = VERO cells, IC50 - VERO Cytotoxicity, Table 2
# [13] = VERO cells, Cytotoxicity VERO Lab B, Lab B
Compound,inhibition at 10 µg/mL [1] [%],"IC50 [1, 8] [µg/mL]","IC50 [1, 9] [µM]","IC50 [2, 10] [µM]",IC50 (peritoneal macrophages; [11]) [µM],"IC50 [3, 12] [µg/mL]","IC50 (VERO cells [4]; read-out: IC50 VERO, Table 3) [µM]",GI50 (3T3 cells) [µg/mL],GI50 (DU145 cells) [µg/mL],GI50 (H460 cells) [µg/mL],GI50 (HT-29 cells) [µg/mL],GI50 (K562 cells) [µg/mL],GI50 (M-14 cells) [µg/mL],GI50 (MCF-7 cells) [µg/mL],GI50 (VERO cells [5]) [µg/mL],MIC (M. tuberculosis H37Rv) [µg/mL],IC50 at 48 h [7] [µM],Selectivity Index [6],IC50 ([2]; read-out: L. amazonensis IC50) [µM],"IC50 [3, 13] [µg/mL]",further results
C=CCOc1cc(OC)c(C(=O)/C=C/c2ccccc2Br)c(OCC=C)c1 [Compound I-16],63.4,5.95,13.9,7.9,,,,,,,,,,,,,,,,,"IC50 (peritoneal macrophages; Mus musculus, Peritoneal macrophage, 48 h, read-out: IC50 Macrophage): 5.4 µM; IC50 [3]: 6 µg/mL; IC50 (VERO cells [4]; read-out: IC50 VERO): 13.9 µM"
"C=CCOc1cc(OC)c(C(=O)/C=C/c2cc(OC)c(OC)c(OC)c2)c(OCC=C)c1 [Compound I-20, (2E)-1-[2-Methoxy-4,6-bis(2-propenyloxy)phenyl]-3-(3,4,5-trimethoxyphenyl)-2-propen-1-one]",76.1,1.5,3.4,8.2,12,18,40.9,,,,,,,,,,,,,,
"C=CCOc1cc(OC)c(C(=O)/C=C/c2ccc(F)cc2)c(OCC=C)c1 [Compound I-23, (2E)-3-(4-Fluorophenyl)-1-[2-methoxy-4,6-bis(2-propenyloxy)phenyl]-2-propen-1-one]",66.5,5.27,14.3,9.5,13.8,5,13.6,,,,,,,,,,,,,,
Cc1ccc(C=NNc2ncnc3sc4c(c23)CCCC4)cc1 [II-05],,,,,,,,,,,,,,,,,,,,,GI50 in indicated cell line: 3T3 (3T3 cells): 12.1 µg/mL; GI50 in indicated cell line: DU145 (DU145 cells): >62.5 µg/mL; GI50 in indicated cell line: H460 (H460 cells): 42.9 µg/mL; GI50 in indicated cell line: HT-29 (HT-29 cells): >62.5 µg/mL; GI50 in indicated cell line: K562 (K562 cells): 2.3 µg/mL; GI50 in indicated cell line: M-14 (M-14 cells): >62.5 µg/mL; GI50 in indicated cell line: MCF-7 (MCF-7 cells): 4.2 µg/mL; GI50 in indicated cell line: VERO (VERO cells [5]): 10.0 µg/mL; MIC MABA (M. tuberculosis H37Rv): >100 µg/mL; IC50 (peritoneal macrophages): 6.3 µM; IC50 ([6]; read-out: L. amazonensis IC50): 13.7 µM; Cytotoxicity VERO Lab B (VERO cells [4]; Lab B): 11.0
CCc1ccc(/C=N\Nc2ncnc3sc4c(c23)CCCC4)cc1 [II-06],,,,,,,,12.1,19.8,9.5,10.8,3.7,64,6.2,6.6,> 100,50.9,9.6,5.3,4,Mean lesion size (mm) (L. amazonensis; after 4 weeks treatment): 3.0 mm; Mean parasite quantification (per 10^6) in lesion per mg (±SD) (L. amazonensis; after 4 weeks treatment): 1.19 (±0.27) amastigotes (×10^6)/mg; Mean lesion wt (mg) (±SD) (L. amazonensis; after 4 weeks treatment): 70.9 (±9.9) mg; % Variation of lesion wt (L. amazonensis; after 4 weeks treatment): −17%; % reduction of parasite burden in the lesion (L. amazonensis; after 4 weeks treatment): 30%; Mean lesion size (mm) (L. amazonensis; after 7 weeks treatment): 4.7 mm; Mean parasite quantification (per 10^6) in lesion per mg (±SD) (L. amazonensis; after 7 weeks treatment): 1.46 (±0.30) amastigotes (×10^6)/mg; Mean lesion wt (mg) (±SD) (L. amazonensis; after 7 weeks treatment): 78.4 (±1.6) mg; % Variation of lesion wt (L. amazonensis; after 7 weeks treatment): 12%; % reduction of parasite burden in the lesion (L. amazonensis; after 7 weeks treatment): 2%; IC50 (L. braziliensis PER006): 3.5 µg/mL; IC50 (L. peruviana LCA08): 3.2 µg/mL
Brc1ccc(/C=N\Nc2ncnc3sc4c(c23)CCCC4)cc1 [II-30],,,,,,,,6.8,5.6,4.1,4.8,2.2,13,2.3,2.8,> 100,3,8.8,0.3,6,"Selectivity Index Lab B ([1]; IC50, VERO/IC50, T. cruzi, Lab B): 0.8; IC50 ([1]; Lab A, read-out: T. cruzi IC50 Lab A): 1.1 µg/mL; IC50 ([1]; Lab B, read-out: T. cruzi IC50 Lab B): 7.9 µg/mL; IC50 (L. braziliensis PER006): > 0.5 µg/mL; IC50 (L. peruviana LCA08): > 0.5 µg/mL"
